How the values were obtained:
[1] = solubility / precipitation; format: physicochemical
Text: This method has been reported to be efficient for in vivo targeting of cancer cells by other poorly soluble anti-cancer drugs, such as m-porphyrin, tamoxifen, and taxol. Gao Z et al. (2003) J Drug Target 11:87-92; Torchilin V P et al. (2003) Proc Natl Acad Sci USA 100:6039-44.
The size of the DM-PIT-1-loaded micelles was about 15 nm with a narrow size distribution.

HUVEC [2] = test: endothelial tube formation assay on Matrigel; format: cell-based, human
Procedure: The tube formation assay was performed in 96-well plates. Wells were pre-coated with 70 μl of the Matrigel basement membrane matrix (BD Biosciences) per well for 1 hr at 37° C. HUVEC were suspended in serum-free M199 medium and plated on Matrigel at a density of 2×10^4 cells per well. PIT-1 was added at indicated concentrations (3.125-100 μM). After an 8 hr incubation at 37° C., phase-contrast images of the endothelial tubes were obtained using a Nikon TE2000 microscope, and tube formation was assessed by counting the number of closed tubes in five random fields from each well.

U87MG cells = test: U87MG cell viability, ATP assay; format: cell-based, human; details: for viability of U87MG cells: 12.5-100 μM, 48 hr, ATP assay
Procedure: U87MG cells were incubated with PITs (12.5-100 μM) for 48 hr. Cell viability was determined using ATP assay.
Based on the critical role of PIP3-dependent Akt signaling in the regulation of cell survival, the effect of PIT-1 on the cancer cell viability was tested. Cancer cells were seeded into 96-well plates (white plates for ATP assay; black plates for fluorescent assay; clear plates for MTS assay) at the density of 5-10×10^3 cells per well in 100 μl of the appropriate media. Compounds were added at a series of concentrations and incubated for different times. For the ATP assay, a luminescence-based commercial kit (CellTiter-Glo, Promega, Madison, Wis.) was used. Thirty microliters of cell lysis/ATP detection reagent was added to each well, mixed for 10 min at room temperature, and the luminescence was measured using a Wallac Victor 3 plate reader (Perkin-Elmer, Wellesley, Mass.). For the MTS assay, a CellTiter 96 AQueous Non-Radioactive Cell Proliferation Assay Kit (Promega, Madison, Wis., USA) was used. Twenty microliters of the combined MTS/PMS solution was added into each well, incubated for 4 hr at 37° C., and the absorbance at 490 nm was measured using a Wallac Victor 3 plate reader. For the Sytox cell death assay, measuring loss of plasma membrane integrity, cells were incubated with 1 μM Sytox Green reagent (Molecular Probes, Eugene, Oreg.) for 30 min at 37° C. and the fluorescence intensity was measured using Wallac Victor 3 plate reader with excitation at 485 nm and emission at 545 nm. Next, 5 μl of 20% (v/v) Triton X-100 solution was added to each well and incubated for 1 hr at 37° C., and the signal was measured again. The ratio of values (percentage of dead cells in each well) before and after Triton X-100 treatment was calculated and normalized to the relevant controls not subjected to the cytotoxic stimuli. IC50 values were determined using Origin6 software (MicroCal, LLC, Northampton, Mass.).

[3] = target: T1, Akt PH domain (PH123, 1-123 a.a. N-terminal fragment of human Akt1) (Homo sapiens, UniProt P31749); test: fluorescence polarization (FP) PIP3/Akt PH domain binding assay; details: 15 nM TMR-PIP3, 5 μM GST-PH domain of Akt, 30 min, read-out: IC50, disruption of PIP3/Akt PH domain binding
T1 construct: recombinant GST fusion proteins containing 1-123 a.a; N-terminal fragment of human Akt1 (PH 123); made in house; host or cells: E. coli BL21(DE3)
T1 sequence (P31749 1-123): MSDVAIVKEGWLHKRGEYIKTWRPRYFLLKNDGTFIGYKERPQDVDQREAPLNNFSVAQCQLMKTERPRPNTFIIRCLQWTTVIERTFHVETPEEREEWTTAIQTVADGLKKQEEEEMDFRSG
Procedure: 15 nM TMR-conjugated PIP3 were incubated with 5 μM GST-PH domain of Akt in the presence or absence of the indicated concentrations of PITs (0-200 μM) for 30 min, followed by FP measurement.
In order to identify compounds that disrupt the interaction between PIP3 and PH domains, a high-throughput fluorescence polarization (FP)-binding assay was developed using recombinant 1-123 amino acid N-terminal fragment of human Akt1 (also referred to herein simply as Akt), encompassing the PH domain (PH123 protein), and fluorescent NBD-labeled PIP3 molecule. […] Briefly, 5 μM recombinant GST fusion proteins containing 1-123 a.a. N-terminal fragment of human Akt1 (PH 123) or 100 nM 441-551 a.a. region of human PDK1 were incubated with 15 nM TMR-labeled PIP3, PIP2, or PIP5 in buffer containing 50 mM Tris-HCl (pH 7.5), 150 mM NaCl, and 5 mM b-ME for 15 min at room temperature in the dark. FP values were determined using Wallac Victor 3 plate reader. […] Incubations were carried out for 1 hr. For secondary assays, PIT compounds were added at various concentrations (6.25, 12.5, 25, 50, 100, 150 and 200 μM), followed by a 30 min incubation. The inhibition rates were calculated as: inhibition rate=[1−(compound-treated group/control group)]×100%, and IC50 value was determined using Origin6 software (MicroCal, LLC, Northampton, Mass.).

cells = test: subG1 DNA content; format: cell-based; details: P<0.01
Text: Since PI3K/PIP3/Akt signaling plays a critical role in the inhibition of apoptosis (Datta S R et al. (1999) Genes Dev 13:2905-27), the possibility that PITs induce apoptosis was examined. […] Proapoptotic Bcl-2 family members Bax and Bak are important mediators of apoptosis. Wei M C et al. (2001) Science 292:727-30. […] Non-apoptotic mechanisms of cell death may also play some additional, albeit less important, role in PIT-induced killing, as some cell death was still observed in Bax/Bak-deficient cells and in the presence of zVAD.fmk.

WAVE2 = target: T2, WAVE2 (Homo sapiens, UniProt Q9Y6W5); test: plasma membrane translocation assay, WAVE2-GFP; format: cell-based
T2 construct: expressed in transfected cells; host or cells: SUM159
T2 sequence (Q9Y6W5 whole entry, species assumed): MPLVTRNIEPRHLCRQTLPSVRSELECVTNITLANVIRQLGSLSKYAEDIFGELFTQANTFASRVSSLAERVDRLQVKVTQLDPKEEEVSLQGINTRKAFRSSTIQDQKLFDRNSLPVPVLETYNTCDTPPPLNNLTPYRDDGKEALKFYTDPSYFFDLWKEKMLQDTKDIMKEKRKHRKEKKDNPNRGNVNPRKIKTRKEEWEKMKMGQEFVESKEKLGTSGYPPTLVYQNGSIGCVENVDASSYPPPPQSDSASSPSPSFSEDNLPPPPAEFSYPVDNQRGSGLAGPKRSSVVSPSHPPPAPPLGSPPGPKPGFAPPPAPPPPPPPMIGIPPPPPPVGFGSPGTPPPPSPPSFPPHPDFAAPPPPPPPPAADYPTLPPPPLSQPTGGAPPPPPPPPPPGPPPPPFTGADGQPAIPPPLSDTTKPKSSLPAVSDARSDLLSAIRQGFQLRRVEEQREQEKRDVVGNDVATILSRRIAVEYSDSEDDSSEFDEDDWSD
Procedure: To begin characterizing cellular activity of PITs, a PH domain translocation assay was performed, measuring PIP3-induced association of GFP-fused PH domains with the plasma membrane. This method provides useful means for monitoring status of the PH domain/PIP3 binding in the intact cells. Varnai P et al. (1999) J Biol Chem 274:10983-9. Several PH-domain-containing proteins, which are known to bind PIP3 specifically and efficiently, were examined. […] Oikawa T et al. (2004) Nat Cell Biol 6:420-6.

HUVEC [4] = test: HUVEC migration, wound healing and transwell assays; format: cell-based, human
Procedure: Two models of cell migration were used, a transwell migration model and a wound closure model. Migration of cancer and endothelial cells was evaluated using 24-transwell Boyden chamber (Costar, Bedford, Mass.) with a polystyrene membrane (6.5 mm diameter, 10 μm thickness, and 8 μm pore size). Cells were suspended in serum-free media and seeded in the upper compartment of each well (2×10^4 cells/well) in the presence or absence of different compounds at the indicated concentrations. The lower compartment contained 600 μl of serum-free culture media supplemented with growth factors. After an 8-hr incubation at 37° C., cells were fixed and stained with 0.1% crystal violet. Non-migrating cells on the upper surface of the filter were removed, and the stained cells that migrated to the lower side were photographed using a phase-contrast microscope (Nikon, Japan) in five random fields. The cells were lysed with 10% acetic acid, and colorimetric determination was made at 595 nm using Wallac Victor 3 plate reader.
Cancer or endothelial cells were seeded into fibronectin-coated 96-well plates (2×10^4 cells/well). […]
Second, HUVEC were serum starved and treated with PITs (25, 50 100 μM) or PIT-1is (100 μM) for 8 hr, followed by bFGF (10 ng/ml) stimulation for 15 min. […] The number of cell ruffles/lamellipodia was counted in five random fields.

SMILES	aqueous solubility [1]	IC50 (HUVEC [2]; Homo sapiens, HUVEC on Matrigel, 8 hr, 3.125-100 μM, read-out: IC50, inhibition of tube formation)	killing of U87MG cells compared with LY294002 (U87MG cells)	viability of U87MG cells (U87MG cells)	IC50 [3]	subG1 DNA content in cells (cells)	plasma membrane translocation of WAVE2 (WAVE2)	migration of HUVEC cells (HUVEC [4])	inhibition of tube formation (HUVEC [2])
O=C(NC(=S)Nc1cc([N+](=O)[O-])cc(Cl)c1O)c1ccccc1 [PIT-1]	limited aqueous solubility	7.75 µM	more pronounced than that by the PI3K inhibitor LY294002	reduce viability	28.1 µM	significant increase	suppressed the plasma membrane translocation	efficiently blocked migration	
O=C1NC(=S)S/C1=C\c1cc(O)c([N+](=O)[O-])cc1Cc1ccccc1 [PIT-2]	limited aqueous solubility			reduce viability	31.5 µM	significant increase	suppressed the plasma membrane translocation	efficiently blocked migration	also observed
